Source: patent US12298319B2, “Method for measuring alpha value of muscarinic M1 receptor positive allosteric modulators” (Takeda Pharmaceutical Company Limited, priority 2017, dated 2025)

Legend:
M5R = target: T1, M5R (Homo sapiens, UniProt P08912); experiment: Ca2+ flux PAM activity against other muscarinic receptor subtypes, M5R; format: cell-based; settings: in the presence of EC20 ACh; read-out: PAM activity against other muscarinic receptor subtypes M5R pIP
T1 sequence (P08912 1-532): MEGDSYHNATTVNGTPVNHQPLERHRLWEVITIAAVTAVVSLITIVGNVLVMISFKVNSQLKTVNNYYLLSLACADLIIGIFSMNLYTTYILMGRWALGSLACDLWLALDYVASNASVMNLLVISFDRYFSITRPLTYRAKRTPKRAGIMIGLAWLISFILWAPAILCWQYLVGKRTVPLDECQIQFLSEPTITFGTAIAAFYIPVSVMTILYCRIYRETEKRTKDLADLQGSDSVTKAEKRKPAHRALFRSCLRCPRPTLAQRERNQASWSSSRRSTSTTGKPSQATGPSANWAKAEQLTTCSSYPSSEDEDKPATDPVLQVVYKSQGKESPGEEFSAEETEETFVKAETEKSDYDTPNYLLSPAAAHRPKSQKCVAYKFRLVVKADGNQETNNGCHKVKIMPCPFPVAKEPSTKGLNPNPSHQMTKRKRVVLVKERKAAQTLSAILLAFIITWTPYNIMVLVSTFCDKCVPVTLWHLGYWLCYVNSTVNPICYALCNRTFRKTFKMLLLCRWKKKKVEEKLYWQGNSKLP

M2R = target: T2, M2R (Homo sapiens, UniProt P08172); experiment: Ca2+ flux PAM activity against other muscarinic receptor subtypes, M2R; format: cell-based; settings: in the presence of EC20 ACh; read-out: PAM activity against other muscarinic receptor subtypes M2R pIP
T2 sequence (P08172 1-466): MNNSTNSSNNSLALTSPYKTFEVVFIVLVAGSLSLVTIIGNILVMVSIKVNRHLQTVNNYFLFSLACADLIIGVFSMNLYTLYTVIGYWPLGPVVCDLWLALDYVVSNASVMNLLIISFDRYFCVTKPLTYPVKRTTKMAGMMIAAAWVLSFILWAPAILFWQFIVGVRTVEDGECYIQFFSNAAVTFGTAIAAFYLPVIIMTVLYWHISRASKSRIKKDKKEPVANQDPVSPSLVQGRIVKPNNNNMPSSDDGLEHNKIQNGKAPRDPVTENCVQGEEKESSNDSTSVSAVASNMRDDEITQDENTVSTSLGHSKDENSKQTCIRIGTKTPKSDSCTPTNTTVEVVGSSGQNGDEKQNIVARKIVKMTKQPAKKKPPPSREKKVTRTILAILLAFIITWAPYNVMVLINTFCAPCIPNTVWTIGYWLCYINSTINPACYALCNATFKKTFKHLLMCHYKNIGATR

human M1R = target: T3, human M1R (Homo sapiens, UniProt P11229); experiment: Binding modulation assay, displacement of [3H]-pirenzepine by ACh, FreeStyle 293 cell membranes; set-up: expressed in transfected cells; host or cells: FreeStyle 293 cells (transient), cell membranes; settings: for Kb: affinity of the PAM to the free M1R, read-out: pKB Mean (converted); for log α Mean / α-value: binding cooperativity between ACh and PAM
T3 sequence (P11229 1-460): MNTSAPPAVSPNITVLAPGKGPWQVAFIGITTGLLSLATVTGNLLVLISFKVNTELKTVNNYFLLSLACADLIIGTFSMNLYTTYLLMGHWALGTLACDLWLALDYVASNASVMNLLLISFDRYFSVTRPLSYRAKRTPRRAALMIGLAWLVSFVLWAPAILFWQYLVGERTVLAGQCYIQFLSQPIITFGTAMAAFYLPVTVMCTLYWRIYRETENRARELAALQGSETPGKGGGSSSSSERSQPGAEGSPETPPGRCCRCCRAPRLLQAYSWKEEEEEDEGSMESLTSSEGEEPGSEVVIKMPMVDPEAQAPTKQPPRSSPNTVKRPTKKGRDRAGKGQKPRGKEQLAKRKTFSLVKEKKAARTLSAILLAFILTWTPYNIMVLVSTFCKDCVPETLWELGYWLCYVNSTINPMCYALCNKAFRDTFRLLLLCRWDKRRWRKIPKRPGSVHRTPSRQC
Description: Binding assay was performed in 96-well plate format. Cell membranes from FreeStyle 293 cells transiently expressed human M1R were incubated with test compounds, ACh and 4 nM [^3H]-pirenzepine in an assay buffer (20 mM HEPES, 100 mM NaCl, 10 mM MgCl2, 0.1% fatty acid free BSA). After 2 h incubation at room temperature, cell membranes were transferred to GF/C filter plates (PerkinElmer, Massachusetts, USA) using cell-harvester (PerkinElmer) and washed 5 times with 300 μL of 50 mM Tris-HCl. Then, GF/C plates were dried at 42° C. 25 μL of microscint 0 (PerkinElmer) was added and the radioactivity was measured by Topcount (PerkinElmer). Non-specific bound was defined in the presence of 10 μM atropine.
All data were analyzed using GraphPad Prism 5 software (GraphPad Software Inc., California, USA). Radioligand binding data were globally fitted to the following allosteric ternary complex model:
[formula] where Y is the percentage of specific binding; [A], [B], and [C] are the concentrations of ACh, the allosteric modulator, and [^3H]-pirenzepine, respectively; KA, KB, and KC denote the equilibrium dissociation constants of ACh, the allosteric modulator, and [^3H]-pirenzepine, respectively; and αAB and […] are the cooperativities between the allosteric modulator and ACh or [^3H]-pirenzepine, respectively. […] The functional interactions between M1 PAMs and ACh were globally fitted to the following operational model of allosterism (Nat Rev Drug Discov. 2009; 8(1): 41-54 and Trends Pharmacol Sci. 2007; 28(8): 382-9)

M4R = target: T4, M4R (Homo sapiens, UniProt P08173); experiment: Ca2+ flux PAM activity against other muscarinic receptor subtypes, M4R; format: cell-based; settings: in the presence of EC20 ACh; read-out: PAM activity against other muscarinic receptor subtypes M4R pIP (converted)
T4 sequence (P08173 1-479): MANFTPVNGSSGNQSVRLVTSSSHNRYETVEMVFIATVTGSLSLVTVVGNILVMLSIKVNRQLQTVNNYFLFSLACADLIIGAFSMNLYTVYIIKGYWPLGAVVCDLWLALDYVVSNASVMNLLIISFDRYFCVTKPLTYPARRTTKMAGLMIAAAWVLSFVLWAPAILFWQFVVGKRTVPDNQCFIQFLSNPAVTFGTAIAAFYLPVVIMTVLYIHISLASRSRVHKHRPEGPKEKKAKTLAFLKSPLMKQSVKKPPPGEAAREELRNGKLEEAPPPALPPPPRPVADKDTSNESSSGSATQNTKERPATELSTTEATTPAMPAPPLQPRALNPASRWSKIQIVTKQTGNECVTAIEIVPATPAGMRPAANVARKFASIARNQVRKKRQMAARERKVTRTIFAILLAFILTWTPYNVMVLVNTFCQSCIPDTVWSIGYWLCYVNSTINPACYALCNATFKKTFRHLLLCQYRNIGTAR

Structure (SMILES)	EC50 (M5R) [µM]	EC50 (M2R) [µM]	Kb (human M1R) [µM]	log α Mean (human M1R)	α-value (human M1R)	EC50 (M4R) [µM]
Cn1cc(-c2ccc(CN3Cc4cccc(Oc5c(F)cccc5C#N)c4C3=O)cc2)cn1 [Compound B, 3-fluoro-2-((2-(4-(1-methyl-1H-pyrazol-4-yl)benzyl)-3-oxo-2,3-dihydro-1H-isoindol-4-yl)oxy)benzonitrile]	> 10	> 10	0.977	1.18	16	> 10
Cn1cc(-c2ccc(CN3Cc4cccc(OCCN5CCCCC5)c4C3=O)cc2)cn1 [Compound F, 2-(4-(1-methyl-1H-pyrazol-4-yl)benzyl)-7-(2-(piperidin-1-yl)ethoxy)isoindolin-1-one]	> 10	> 10	9.12	1.54	–	> 10
Cc1c(Cc2ccc(-n3cccn3)cc2)cc2c(c1F)CN([C@H]1COCC[C@@H]1O)C2=O [Compound D, 4-fluoro-2-[(3S,4S)-4-hydroxytetrahydro-2H-pyran-3-yl]-5-methyl-6-[4-(1H-pyrazol-1-yl)benzyl]-2,3-dihydro-1H-isoindol-1-one]	–	–	–	–	199	–
Cn1ccc(-c2ccc(CN3Cc4cccc(O[C@H]5CCCC[C@@H]5O)c4C3=O)cc2)n1 [Compound A, 7-(((1S,2S)-2-hydroxycyclohexyl)oxy)-2-(4-(1-methyl-1H-pyrazol-3-yl)benzyl)isoindolin-1-one]	> 10	> 10	26.3	3.30	2371	1
O=c1c2cn(Cc3ccc(-n4cccn4)cc3)c3ccccc3c-2nn1-c1ccccc1F [Compound E, 2-(2-fluorophenyl)-5-(4-(1H-pyrazol-1-yl)benzyl)-2,5-dihydro-3H-pyrazolo[4,3-c]quinolin-3-one, reference compound]	> 10	> 10	3.09	2.67	–	> 10
Cn1cc(-c2ccc(CN3Cc4cccc(-c5ccn[nH]5)c4C3=O)cc2)cn1 [Compound G, 2-(4-(1-methyl-1H-pyrazol-4-yl)benzyl)-7-(1H-pyrazol-5-yl)isoindolin-1-one]	> 10	> 10	14.8	0.56	–	> 10
Cn1cc(-c2ccc(Cc3cc4c(=O)n([C@H]5CCCC[C@@H]5O)cnc4c4ccccc34)cn2)cn1 [Compound C, 3-((1S,2S)-2-hydroxycyclohexyl)-6-((6-(1-methyl-1H-pyrazol-4-yl)pyridin-3-yl)methyl)benzo[h]quinazoline-4(3H)-one, reference compound]	> 10	> 10	0.288	3.25	1786	> 10
